Results from patent US8071581B2, “Triazolopyridazine protein kinase modulators” (SGX Pharmaceuticals, Inc., priority 2006, dated 2011).

What was measured:
[1] = biological target: MET kinase (c-MET), kinase domain of human Met (Homo sapiens, UniProt P08581); experiment: MET luminescence-based enzyme assay (Kinase-Glo)
GTL16 = GTL16 cell assay (EC50); format: cell-based; details: Homo sapiens, GTL 16
Experimental: Compounds were tested in the following assays in duplicate. 96-well XTT assay: Cells were grown in growth media containing various concentrations of compounds (duplicates) on a 96-well flat bottom plate for 72 hours at 37° C. in 5% CO2. The starting cell number was 5000 cells per well and volume was 120 μl. At the end of the 72-hour incubation, 40 μl of XTT labeling mixture (50:1 solution of sodium 3′-[1-(phenylaminocarbonyl)-3,4-tetrazolium]-bis(4-methoxy-6-nitro) benzene sulfonic acid hydrate and Electron-coupling reagent: PMS (N-methyl dibenzopyrazine methyl sulfate) were added to each well of the plate. After an additional 2-6 hours […] with a spectrophotometer.

Sequence of MET kinase (c-MET), kinase domain of human Met (P08581 1078-1345 limits assumed): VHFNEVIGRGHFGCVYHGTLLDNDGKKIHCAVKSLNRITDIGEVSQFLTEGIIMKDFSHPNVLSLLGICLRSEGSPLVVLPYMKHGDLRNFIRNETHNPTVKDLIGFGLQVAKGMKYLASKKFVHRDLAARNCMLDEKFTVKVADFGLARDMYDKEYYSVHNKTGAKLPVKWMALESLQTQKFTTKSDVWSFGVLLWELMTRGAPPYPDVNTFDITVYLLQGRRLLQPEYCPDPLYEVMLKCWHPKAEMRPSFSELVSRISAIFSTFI

SMILES	IC50 [1] [nM]	EC50 (GTL16; Table 1) [nM]	EC50 (GTL16; Table 2) [nM]
N#Cc1cccc(-c2ccc3nnc(Cc4c(F)cc5ncccc5c4F)n3n2)c1 [compound 88]	< 100	< 100	
CNC(=O)c1ccc(-c2ccc3nnc(Cc4c(F)cc5ncccc5c4F)n3n2)cc1F [compound 89]	< 100	< 100	
Cn1cc(-c2ccc3nnc(Cc4cc5cccnc5cc4F)n3n2)cn1 [compound 90]	< 100	< 100	
CCNC(=O)c1ccc(-c2ccc3nnc(Cc4ccc5ncsc5c4)n3n2)cc1F [compound 94]	100 to 1000	100 to 1000	
CC(C)NC(=O)c1ccc(-c2ccc3nnc(Cc4ccc5ncsc5c4)n3n2)cc1F [compound 95]	< 100	100 to 1000	
Cn1cc(-c2ccc3nnc(Cc4ccc5ncsc5c4)n3n2)cn1 [compound 96]	< 100	< 100	
N#Cc1cccc(-c2ccc3nnc(Cc4ccc5ncsc5c4)n3n2)c1 [compound 98]	100 to 1000	100 to 1000	
CNC(=O)c1ccc(-c2ccc3nnc(Cc4ccc5ncsc5c4)n3n2)cc1F [compound 101]	< 100	100 to 1000	
CS(=O)(=O)c1cccc(-c2ccc3nnc(Cc4ccc5ncsc5c4)n3n2)c1 [compound 102]	< 100	100 to 1000	
C[C@@H](c1ccc2ncsc2c1)c1nnc2ccc(-c3cccc(C#N)c3)nn12 [compound 103, (S)-3-[3-(1-Benzothiazol-6-yl-ethyl)-[1,2,4]triazolo[4,3-b]pyridazin-6-yl]-benzonitrile]	< 100	< 100	
C=Cc1ccc2nnc(Cc3ccc4ncccc4c3)n2n1 [compound 107]	100 to 1000	100 to 1000	
c1cnc2ccc(Cc3nnc4ccc(C5CC5)nn34)cc2c1 [compound 109, 6-(6-Cyclopropyl-[1,2,4]triazolo[4,3-b]pyridazin-3-ylmethyl)-quinoline]	100 to 1000	100 to 1000	
Fc1cc2ncccc2c(F)c1Cc1nnc2ccc(Cl)nn12 [compound 111, 6-(6-Chloro-[1,2,4]triazolo[4,3-b]pyridazin-3-ylmethyl)-5,7-difluoro-quinoline]	100 to 1000	100 to 1000	
c1cnc2ccc(Cc3nnc4ccc(N5CCCCC5)nn34)cc2c1 [compound 112]	100 to 1000	100 to 1000	
CN1CCN(c2ccc3nnc(Cc4ccc5ncccc5c4)n3n2)CC1 [compound 113]	100 to 1000	100 to 1000	
Brc1cnc2ccc(Cc3nnc4nccnn34)cc2c1 [compound 117, 3-Bromo-6-[1,2,4]triazolo[4,3-b][1,2,4]triazin-3-ylmethyl-quinoline]	< 100	< 100	
Cn1cc(-c2cnc3ccc(Cc4nnc5ccc(C(F)(F)F)nn45)cc3c2)cn1 [compound 123, 3-(1-Methyl-1H-pyrazol-4-yl)-6-(6-trifluoromethyl-[1,2,4]triazolo[4,3-b]pyridazin-3-ylmethyl)-quinoline]	< 100		100 to 1000
Cc1ccc2nnc(Cc3ccc4ncc(-c5cn[nH]c5)cc4c3)n2n1 [compound 125, 6-(6-Methyl-[1,2,4]triazolo[4,3-b]pyridazin-3-ylmethyl)-3-(1H-pyrazol-4-yl)-quinoline]	< 100		100 to 1000
Cc1ccc2nnc(Cc3ccc4ncc(-c5cnn(C6CCNCC6)c5)cc4c3)n2n1 [compound 126]	< 100		< 100
Cc1ccc2nnc(Cc3ccc4ncc(-c5cc(F)cc(F)c5)cc4c3)n2n1 [compound 128]	100 to 1000		1000 to 10000
Cc1ccc2nnc(Cc3ccc4ncc(-c5cncnc5)cc4c3)n2n1 [compound 129]	100 to 1000		1000 to 10000
Cc1ccc2nnc(Cc3ccc4ncc(-c5cccc(C#N)c5)cc4c3)n2n1 [compound 130]	< 100		< 100
Cc1ccc2nnc(Cc3ccc4ncc(-c5cccnc5)cc4c3)n2n1 [compound 131]	< 100		< 100
Cc1ccc2nnc(Cc3ccc4ncc(-n5ccnc5)cc4c3)n2n1 [compound 132, 3-Imidazol-1-yl-6-(6-methyl-[1,2,4]triazolo[4,3-b]pyridazin-3-ylmethyl)-quinoline]	100 to 1000		100 to 1000
Cc1ccc2nnc(Cc3ccc4ncc(-c5cnn(CCN6CCOCC6)c5)cc4c3)n2n1 [compound 133]	< 100		< 100
Cc1ccc2nnc(Cc3ccc4ncc(-c5cnn(CC(=O)O)c5)cc4c3)n2n1 [compound 134]	< 100		100 to 1000
Cc1ccc2nnc(Cc3ccc4ncc(-c5cccc(C(=O)O)c5)cc4c3)n2n1 [compound 135]	100 to 1000		1000 to 10000

SMILES	IC50 [1] [nM]	EC50 (GTL16; Table 1) [nM]	EC50 (GTL16; Table 2) [nM]
Cc1ccc2nnc(Cc3ccc4ncc(-c5ccc(C(=O)O)cc5)cc4c3)n2n1 [compound 136]	100 to 1000		1000 to 10000
Cc1ccc2nnc(Cc3ccc4ncc(-c5cc6ccccc6[nH]5)cc4c3)n2n1 [compound 137]	< 100		100 to 1000
Cc1ccc2nnc(Cc3ccc4ncc(-c5ccc[nH]5)cc4c3)n2n1 [compound 138]	< 100		1000 to 10000
Cn1cc(-c2cnc3ccc(Cc4nnc5cccnn45)cc3c2)cn1 [compound 139]	< 100		< 100
COc1ccc2nnc(Cc3ccc4ncc(-c5cnn(C)c5)cc4c3)n2n1 [compound 140, 6-(6-Methoxy-[1,2,4]triazolo[4,3-b]pyridazin-3-ylmethyl)-3-(1-methyl-1H-pyrazol-4-yl)-quinoline]	< 100		< 100
Cn1cc(-c2cnc3ccc(Cc4nnc5ccc(-c6cnn(C)c6)nn45)cc3c2)cn1 [compound 141]	< 100		< 100
Cc1ccc2nnc(Cc3ccc4ncc(-c5cnc[nH]5)cc4c3)n2n1 [compound 142, 3-(1H-Imidazol-4-yl)-6-(6-methyl-[1,2,4]triazolo[4,3-b]pyridazin-3-ylmethyl)-quinoline]	100 to 1000		100 to 1000
CCC(=O)Cn1cc(-c2cnc3ccc(Cc4nnc5ccc(C)nn45)cc3c2)cn1 [compound 143]	< 100		< 100
Cc1ccc2nnc(Cc3ccc4ncc(-c5cnn(CCO)c5)cc4c3)n2n1 [compound 144, 2-{4-[6-(6-Methyl-[1,2,4]triazolo[4,3-b]pyridazin-3-ylmethyl)-quinolin-3-yl]pyrazol-1-yl}-ethanol]	< 100		100 to 1000
Cc1ccc2nnc(Cc3c(F)cc4ncc(-c5cnn(C)c5)cc4c3F)n2n1 [compound 145, 5,7-Difluoro-3-(1-methyl-1H-pyrazol-4-yl)-6-(6-methyl-[1,2,4]triazolo[4,3b]pyridazin-3-ylmethyl)-quinoline]	< 100		< 100
Cc1ccc2nnc(Cc3c(F)cc4ncc(-c5cnn(CCN6CCOCC6)c5)cc4c3F)n2n1 [compound 146]	< 100		< 100
COCCn1cc(-c2cnc3ccc(Cc4nnc5ccc(C)nn45)cc3c2)cn1 [compound 147]	< 100		< 100
Cc1ccc2nnc(Cc3ccc4ncc(-c5cnn(CCC#N)c5)cc4c3)n2n1 [compound 148]	< 100		< 100
Cc1ccc2nnc(Cc3ccc4ncc(-c5cnn(CC(N)=O)c5)cc4c3)n2n1 [compound 149, 2-{4-[6-(6-Methyl-[1,2,4]triazolo[4,3-b]pyridazin-3-ylmethyl)-quinolin-3-yl]-pyrazol-1-yl}-acetamide]	< 100		1000 to 10000
Cc1ccc2nnc(Cc3c(F)cc4ncc(-c5cnn(CC(=O)O)c5)cc4c3F)n2n1 [compound 151]	< 100		1000 to 10000
Cc1ccc2nnc(Cc3ccc4ncc(-c5cnn(C6CNC6)c5)cc4c3)n2n1 [compound 153]	< 100		100 to 1000
Cc1ccc2nnc(Cc3ccc4ncc(-c5cnn(CCC(N)=O)c5)cc4c3)n2n1 [compound 154]	< 100		100 to 1000
Cc1ccc2nnc(Cc3ccc4ncc(-c5cnn(CC6CNC6)c5)cc4c3)n2n1 [compound 155, 3-(1-Azetidin-3-ylmethyl-1H-pyrazol-4-yl)-6-(6-methyl-[1,2,4]triazolo[4,3-b]pyridazin-3-ylmethyl)-quinoline]	< 100		100 to 1000
CCc1ccc2nnc(Cc3ccc4ncc(-c5cnn(C)c5)cc4c3)n2n1 [compound 157, 6-(6-Ethyl-[1,2,4]triazolo[4,3-b]pyridazin-3-ylmethyl)-3-(1-methyl-1H-pyrazol-4-yl)-quinoline]	< 100		< 100
Cc1ccc2nnc(Cc3cc4cc(-c5cnn(C)c5)cnc4cc3F)n2n1 [compound 158]	< 100		< 100
CN(C)c1ccc2nnc(Cc3ccc4ncc(-c5cnn(C)c5)cc4c3)n2n1 [compound 159, Dimethyl-{3-[3-(1-methyl-1H-pyrazol-4-yl)-quinolin-6-ylmethyl]-[1,2,4]triazolo[4,3-b]pyridazin-6-yl}-amine]	< 100		< 100
CNc1ccc2nnc(Cc3ccc4ncc(-c5cnn(C)c5)cc4c3)n2n1 [compound 160]	< 100		< 100
Cn1cc(-c2cnc3ccc(Cc4nnc5ccc(N)nn45)cc3c2)cn1 [compound 161]	< 100		< 100
CCn1cc(-c2cnc3ccc(Cc4nnc5ccc(C)nn45)cc3c2)cn1 [compound 162]	< 100		< 100
CCCn1cc(-c2cnc3ccc(Cc4nnc5ccc(C)nn45)cc3c2)cn1 [compound 163]	< 100		< 100
Cc1ccc2nnc(Cc3ccc4ncc(-c5cnn(C6(C(=O)O)CCC6)c5)cc4c3)n2n1 [compound 164]	< 100		1000 to 10000
